Results on 50 compounds are retold here after PubChem BioAssay AID1361 (SRMLSC, 2008).

The experiment can be described thus: blockers of mitochondrial fusion, WT vs mutant – cell-based, chemical genetic, wild-type and mutant, confirmation (AID 1361). The settings on record: Cell-based mitochondrial fusion phenotype, imaging.
Setting [1] is: mutant cells, measured here: mutant cell line IC50.

Active and inactive are the calls of the source. The rule behind the calls is not given here.

In the case of `COc1ccc(C(C)(C)C)cc1NC(=O)c1cncc(Br)c1`, the IC50 (usually the concentration that inhibits the measured activity by half) is, setting by setting: (WT cells) > 25 µM (inactive); under setting [1], greater than 25 µM.
The corresponding values for `Cc1ccc(C(=O)NC(=S)/C=C2\N(C)c3ccccc3C2(C)C)cc1` are 12 µM and greater than 25 µM.
With `CN(CC(=O)Nc1ccccc1Sc1ccccc1)C1CCCCC1`, the 50% inhibitory concentration (IC50) is 23.2 µM (WT cells) and greater than 25 µM under setting [1].
`CCCCCOc1ccc2oc(=O)c3c(c2c1)CCCN3C(=O)CN1CCCC(C(=O)OCC)C1` (stereo not given): the IC50 was > 25 µM (inactive) (WT cells) and greater than 25 µM under setting [1].
The corresponding values for `CCCn1c(N2CCC(Cc3ccccc3)CC2)nc2c1c(=O)[nH]c(=O)n2C` are > 25 µM (inactive) and greater than 25 µM.
The corresponding values for `CCOC(=O)C1CCc2nc3ccccc3c(=O)n21` (stereo not given) are > 25 µM (inactive) and greater than 25 µM.
The corresponding values for `CCn1cc(C(=O)N2CCc3ccccc32)c(=O)c2cc(S(=O)(=O)N(C)C3CCCCC3)ccc21` are > 25 µM (inactive) and greater than 25 µM.
Consider `CCOC(=O)C1=C(C)NC(=S)NC1c1ccc(-c2ccc(Cl)cc2)o1` (stereo not given), for which the IC50 reads like this: (WT cells) 10.4 µM; under setting [1], 24.2 µM.
`CCCCCCOC1(c2ccccc2)OC(=O)c2ccccc21` (stereo not given): the IC50 is, setting by setting: (WT cells) 17 µM; under setting [1], 21.5 µM.
The corresponding values for `CC(C)CCNC(=O)CN(CC1CCCO1)C(=O)CCC(=O)Nc1ccccn1` (stereo not given) are > 25 µM (inactive) and greater than 25 µM.
Take `CCOc1ccc(-c2[nH]ncc2Oc2ccccc2OCC)c(O)c1`: the IC50 is > 25 µM (inactive) (WT cells) and greater than 25 µM under setting [1].
The corresponding values for `C/C=C(/C(=C/C)c1ccc(O)cc1)c1ccc(O)cc1` are 21 µM and greater than 25 µM.
The corresponding values for `Clc1ccc(C2=NNC(=NCc3ccc4c(c3)OCO4)SC2)cc1` are > 25 µM (inactive) and greater than 25 µM.
The corresponding values for `COc1cc(CNCCO)cc(Br)c1OCc1ccccc1Cl` are > 25 µM (inactive) and 23.8 µM.
`Cc1ccccc1COC(=O)c1nn(-c2ccccc2)nc1N`: the IC50 is > 25 µM (inactive) (WT cells) and greater than 25 µM under setting [1].
The corresponding values for `COC(=O)c1ccc(-c2sc3nc(N4CCOCC4)c4c(c3c2N)CCCC4)o1` are > 25 µM (inactive) and greater than 25 µM.
The corresponding values for `CCCn1c(CN(Cc2ccccc2)Cc2ccccc2)nc2c1c(=O)n(C)c(=O)n2C` are 20.6 µM and greater than 25 µM.
On to `O=[N+]([O-])c1ccccc1S(=O)(=O)NCCC1=CCCCC1`, for which the IC50 reads like this: (WT cells) > 25 µM (inactive); under setting [1], greater than 25 µM.
The corresponding values for `Cc1nc2cc(C(=O)OCC(=O)NC34CC5CC(CC(C5)C3)C4)ccc2n1-c1ccccc1` are 21.9 µM and greater than 25 µM.
On to `O=S(Cc1ccc(Br)cc1)Cc1nnc(SCc2c(F)cccc2Cl)n1-c1ccccc1` (stereo not given), for which the IC50 is > 25 µM (inactive) (WT cells) and greater than 25 µM under setting [1].
On to `Cc1cc(CC(C)C)n(-c2nc3ccccc3c(=O)n2OCc2ccccc2)n1`, for which the IC50 is > 25 µM (inactive) (WT cells) and greater than 25 µM under setting [1].
The corresponding values for `CC1(C)CC(=O)c2c(O)cc(OCc3ccc([N+](=O)[O-])cc3)cc2O1` are > 25 µM (inactive) and greater than 25 µM.
The corresponding values for `Cc1cc(Oc2ccc(C(C)(C)C)cc2)nc(N2CCOCC2)n1` are 19.9 µM and greater than 25 µM.
Take `Brc1cnc(N2CCCCC2)nc1N1CCOCC1`: the IC50 runs as follows: (WT cells) > 25 µM (inactive); under setting [1], greater than 25 µM.
As to `COc1ccc(OCCC(=O)N2CCCCC2)cc1`, the IC50 reads like this: (WT cells) > 25 µM (inactive); under setting [1], greater than 25 µM.
Regarding `Cc1sc(NC(=O)c2ccco2)c(C(c2ccc(F)cc2)N2CCN(C)CC2)c1C` (stereo not given), the IC50 was 14.4 µM (inactive) (WT cells) and greater than 12.5 µM under setting [1].
For `Cc1cc(Nc2nc(Cl)c(Cl)cc2Cl)n(-c2ccccc2)n1`, the IC50 by setting is: (WT cells) 24.1 µM; under setting [1], greater than 25 µM.
The corresponding values for `CC[n+]1c(SC)ccc2cc(OC)ccc21` are 11.5 µM and greater than 25 µM.
For the compound `CC(C)C(=O)Nc1cc(S(=O)(=O)Nc2ccc(Cl)cc2)ccc1Cl`, the IC50 by setting is: (WT cells) 22 µM; under setting [1], greater than 25 µM.
The corresponding values for `Cc1cc(C)n(-c2nc(C)nc3c2cnn3-c2ccccc2)n1` are > 25 µM (inactive) and greater than 25 µM.
For the compound `Cc1cc(=O)[nH]c(SCC(N)=O)c1C#N`, the IC50 (WT cells) is > 25 µM (inactive) and the IC50 under setting [1] was greater than 25 µM.
The corresponding values for `CCCCC(=O)NC(=S)Nc1ccccc1N1CCCCC1` are 19.8 µM and greater than 25 µM.
With `CNC(=S)N/N=C/c1cccc(OCc2ccccc2F)c1`, the IC50 reads like this: (WT cells) > 25 µM (inactive); under setting [1], greater than 25 µM.
The corresponding values for `O=C(OCC(=O)N1CCN(C(=O)c2ccco2)CC1)c1cn(-c2ccccc2)nc1-c1ccccc1` are 13.1 µM and 16.3 µM.
The corresponding values for `COCCCNC(=O)c1cccc(C(=O)NCCCOC)c1` are > 25 µM (inactive) and greater than 25 µM.
The corresponding values for `COc1ccccc1N1CCN(C(=O)c2ccc(CSc3ccccc3)cc2)CC1` are 15.4 µM and greater than 25 µM.
As to `COc1ccc(Nc2nc(-c3ccccc3)c3ccccc3n2)cc1`, the IC50 by setting is: (WT cells) 10.7 µM; under setting [1], greater than 25 µM.
The corresponding values for `Cc1ccc(C(NC(=O)NC(C)c2ccccc2)C(Cl)(Cl)Cl)cc1F` (stereo not given) are 10.9 µM and greater than 25 µM.
The corresponding values for `Cc1nn(C(C)(C)C)c(OC(=O)c2cccs2)c1Sc1ccccc1` are 22.1 µM and greater than 25 µM.
The corresponding values for `Cc1cc(C)c2nc(C(F)(F)F)nc(N3CC(C)OC(C)C3)c2c1` (stereo not given) are > 25 µM (inactive) and greater than 25 µM.
Turning to `CCCCSc1nnc(-c2ccc(C)cc2)c2ccccc12`, the IC50 runs as follows: (WT cells) 9.57 µM; under setting [1], 23.1 µM.
The corresponding values for `CCOC(=O)C1=C(C)C(c2cccc(Oc3ccccc3)c2)NC(=S)N1` (stereo not given) are > 25 µM (inactive) and greater than 25 µM.
In the case of `CCc1nnc(NC(=O)C2Cc3ccccc3CN2S(=O)(=O)c2ccc(C)cc2)s1` (stereo not given), the IC50 was > 25 µM (inactive) (WT cells) and greater than 25 µM under setting [1].
The corresponding values for `CCCCSc1nnc(CNC(=O)C23CC4CC(CC(C4)C2)C3)n1Cc1ccccc1` are > 25 µM (inactive) and greater than 25 µM.
As to `CCCC(=O)NC(=S)Nc1cccc(Cl)c1N1CCCCC1`, the IC50 runs as follows: (WT cells) 22.5 µM; under setting [1], greater than 25 µM.
The corresponding values for `c1ccc(N(c2ccccc2)c2nc(N3CCCC3)nc(-n3ccnc3)n2)cc1` are 15.5 µM and greater than 25 µM.
The corresponding values for `CC(=O)Cc1nsc(NC(=O)c2ccc(-c3ccc(Cl)c(Cl)c3)o2)n1` are > 25 µM (inactive) and greater than 25 µM.
The corresponding values for `COC(=O)C1=C(C)N(C(C)c2ccccc2)C(=O)/C1=C\c1ccco1` (stereo not given) are 24.2 µM and greater than 25 µM.
As for `COc1ccccc1-n1cnc2sc(-c3ccccc3)cc2c1=O`, the IC50 reads like this: (WT cells) > 25 µM (inactive); under setting [1], greater than 25 µM.
The corresponding values for `CCOc1ccccc1CNC(=O)c1ccc(Sc2ccc(Cl)cc2)c(NC(C)=O)c1` are 16.9 µM and greater than 25 µM.
